Data from US20250302948A1, “DR5 Agonist and IAP Antagonist Combination Therapy” (Inhibrx Biosciences, Inc., priority 2022, published 2025).

Experiments:
SW620 = test: CellTiter-Glo cell viability, 48 h (Examples 1, 2); assay type: cell-based; conditions: Homo sapiens, SW-620
Excerpt: (§1) Test Article Preparation for INBRX-109.
(§2) Day 2—Test and Control Article Addition.
(§3) Day 4—Viability Measurements. […] Data was graphed in GraphPad Prism 7.

HT-29 = test: CellTiter-Glo cell viability, 48 h (Example 1); assay type: cell-based; conditions: Homo sapiens
Excerpt: as §1, §2, §3

LOVO = test: CellTiter-Glo cell viability, 48 h (Example 1); assay type: cell-based; conditions: Homo sapiens
Excerpt: as §1, §2, §3

LS411N = test: CellTiter-Glo cell viability, 48 h (Example 1); assay type: cell-based; conditions: Homo sapiens, LS-411N
Excerpt: as §1, §2, §3

SNU-C2B = test: CellTiter-Glo cell viability, 48 h (Example 1); assay type: cell-based; conditions: Homo sapiens
Excerpt: as §1, §2, §3

A253 = test: CellTiter-Glo cell viability, T48 (Example 3); assay type: cell-based
Excerpt: (§4) Day 2—Compound Treatment.
(§5) Day 4—Viability Measurements.

CAL-27 = test: CellTiter-Glo cell viability, T48 (Example 3); assay type: cell-based
Excerpt: as §4, §5

COLO-680N = test: CellTiter-Glo cell viability, T48 (Example 3); assay type: cell-based
Excerpt: as §4, §5

Detroit 562 = test: CellTiter-Glo cell viability, T48 (Example 3); assay type: cell-based
Excerpt: as §4, §5

FADU = test: CellTiter-Glo cell viability, T48 (Example 3); assay type: cell-based
Excerpt: as §4, §5

KYSE-150 = test: CellTiter-Glo cell viability, T48 (Example 3); assay type: cell-based
Excerpt: as §4, §5

KYSE-270 = test: CellTiter-Glo cell viability, T48 (Example 3); assay type: cell-based
Excerpt: as §4, §5

KYSE-410 = test: CellTiter-Glo cell viability, T48 (Example 3); assay type: cell-based
Excerpt: as §4, §5

KYSE-70 = test: CellTiter-Glo cell viability, T48 (Example 3); assay type: cell-based
Excerpt: as §4, §5

OSC-19 = test: CellTiter-Glo cell viability, T48 (Example 3); assay type: cell-based
Excerpt: as §4, §5

RPMI-2650 = test: CellTiter-Glo cell viability, T48 (Example 3); assay type: cell-based
Excerpt: as §4, §5

SCC-15 = test: CellTiter-Glo cell viability, T48 (Example 3); assay type: cell-based
Excerpt: as §4, §5

SCC-25 = test: CellTiter-Glo cell viability, T48 (Example 3); assay type: cell-based
Excerpt: as §4, §5

SCC-4 = test: CellTiter-Glo cell viability, T48 (Example 3); assay type: cell-based
Excerpt: as §4, §5

SCC-9 = test: CellTiter-Glo cell viability, T48 (Example 3); assay type: cell-based
Excerpt: as §4, §5

SW579 = test: CellTiter-Glo cell viability, T48 (Example 3); assay type: cell-based
Excerpt: as §4, §5

T.Tn = test: CellTiter-Glo cell viability, T48 (Example 3); assay type: cell-based
Excerpt: as §4, §5

TE-1 = test: CellTiter-Glo cell viability, T48 (Example 3); assay type: cell-based
Excerpt: as §4, §5

NCI-H460 = test: Cytotoxicity on lung cancer cell lines, assay similar to Example 1 (Example 4); conditions: Homo sapiens
Protocol: (§6) Day 1-Cell Seeding. Monolayer cultures of each cell line were harvested for compound screening as detailed below. Culture medium was aspirated, and the cells were washed once with PBS. Accutase was added and flasks were incubated at 37° C. until cells became detached. An equal volume of complete medium was added to quench the Accutase, and the cells were then pipetted up and down several times to generate a homogenous single cell suspension. The density and viability of cells was determined by Trypan Blue using a TC20 Automated Cell Counter. Experimental cells were resuspended to a concentration of 0.17×10^6/mL in EMEM/10% FBS/Anti-Anti media (complete EMEM) and seeded in the inner wells of 384-well luminescence plates at 15 μL/well (2,500/well final). Each cell line was plated in duplicate on separate plates. […]
(§7) Day 4—Viability Measurements. […] Any visible bubbles were removed with 100% ethanol vapor, then luminescence (RLU) was read on the Spectra Max M5e plate reader, using the 384-well opaque plate setting and SoftMaxPro v5.4 software with an integration time of 50 milliseconds. To determine the effect of test articles on cell viability, raw RLU values were exported to Excel and percent survival was calculated as a percentage of vehicle control (0.2% DMSO in EMEM), where the vehicle control is set at 100%. […]

HCC2935 = test: as above; conditions: Homo sapiens
Protocol: as §6, §7

NCI-H23 = test: as above; conditions: Homo sapiens
Protocol: as §6, §7

NCI-H2452 = test: as above; conditions: Homo sapiens
Protocol: as §6, §7

A549 = test: as above; conditions: Homo sapiens
Protocol: as §6, §7

NCI-N87 = test: Cytotoxicity on gastric cancer cell lines, assay similar to Example 1 (Example 4); conditions: Homo sapiens
Protocol: as §6
(§8) Day 4—Viability Measurements. […] Any visible bubbles were removed with 100% ethanol vapor, then luminescence (RLU) was read on the Spectra Max M5e plate reader, using the 384-well opaque plate setting and SoftMaxPro v5.4 software with an integration time of 50 milliseconds. To determine the effect of test articles on cell viability, raw RLU values were exported to Excel and percent survival was calculated as a percentage of vehicle control (0.2% DMSO in EMEM), where the vehicle control is set at 100%.

SNU-5 = test: as above; conditions: Homo sapiens
Protocol: as §6, §8

SNU-1 = test: as above; conditions: Homo sapiens, SNU1
Protocol: as §6, §8

AsPC-1 = test: Cytotoxicity on pancreatic cancer cell lines, assay similar to Example 1 (Example 4); conditions: Homo sapiens, ASPC1
Protocol: as §6, §8

Panc-1 = test: as above; conditions: Homo sapiens
Protocol: as §6, §8

MIA-PaCa-2 = test: as above; conditions: Homo sapiens
Protocol: as §6, §7

SW1990 = test: as above; conditions: Homo sapiens
Protocol: as §6, §7

LS174T = test: CellTiter-Glo cell viability, 48 h (Examples 1, 2); assay type: cell-based; conditions: Homo sapiens, LCL-161 5 uM alone
Excerpt: as §1, §2, §3

[1] = Homo sapiens, Debio-1143 4.5 μM alone
[2] = LCL-161 5 uM alone, read-out: % cytotoxicity

C[C@@H]1CN(CC(=O)N2CC(C)(C)c3nc(CO)c(Cc4ccc(F)cc4)cc32)[C@@H](CN2CCOC[C@H]2C)CN1 [ASTX660, tolinapant]
cytotoxicity at 0.9 µM (SW620; SW620, ASTX660 900 nM alone): 2.6%
cytotoxicity at 0.9 µM (HT-29; ASTX660 900 nM alone): 0.3%
cytotoxicity at 0.9 µM (LOVO; ASTX660 900 nM alone): 6.5%
cytotoxicity at 0.9 µM (LS411N; LS411N, ASTX660 900 nM alone): 5.9%
cytotoxicity at 0.9 µM (SNU-C2B; ASTX660 900 nM alone): 31.1%

CN[C@@H](C)C(=O)N[C@H](C(=O)N1CCC[C@H]1C(=O)N[C@H]1c2ccccc2C[C@H]1OCC#CC#CCO[C@@H]1Cc2ccccc2[C@@H]1NC(=O)[C@@H]1CCCN1C(=O)[C@@H](NC(=O)[C@H](C)NC)C1CCCCC1)C1CCCCC1 [AZD5582]
cytotoxicity at 0.45 µM (SW620; SW620, AZD5582 450 nM alone): 4.1%
cytotoxicity at 0.45 µM (HT-29; AZD5582 450 nM alone): 23.4%
cytotoxicity at 0.45 µM (LOVO; AZD5582 450 nM alone): 28.2%
cytotoxicity at 0.45 µM (LS411N; LS411N, AZD5582 450 nM alone): 12.7%
cytotoxicity at 0.45 µM (SNU-C2B; AZD5582 450 nM alone): 75.3%

CN[C@@H](C)C(=O)N[C@H]1CN(C(=O)CC(C)C)CC[C@H]2CC[C@@H](C(=O)NC(c3ccccc3)c3ccccc3)N2C1=O [Debio-1143, xevinapant]
cytotoxicity at 4.5 µM (SW620): 5.5%
cytotoxicity at 4.5 µM (LS411N): 0.4%
cytotoxicity at 4.5 µM (SNU-C2B): 44.8%
cytotoxicity at 4.5 µM (A253; [1]): 3.2%
cytotoxicity at 4.5 µM (CAL-27; [1]): 7.2%
cytotoxicity at 4.5 µM (COLO-680N; [1]): 3.4%
cytotoxicity at 4.5 µM (Detroit 562; [1]): 9%
cytotoxicity at 4.5 µM (FADU; [1]): -3.7%
cytotoxicity at 4.5 µM (KYSE-150; [1]): -13.7%
cytotoxicity at 4.5 µM (KYSE-270; [1]): 8.2%
cytotoxicity at 4.5 µM (KYSE-410; [1]): -3.3%
cytotoxicity at 4.5 µM (KYSE-70; [1]): -6.7%
cytotoxicity at 4.5 µM (OSC-19; OSC19, Debio-1143 4.5 μM alone): -7.1%
cytotoxicity at 4.5 µM (RPMI-2650; [1]): 5.6%
cytotoxicity at 4.5 µM (SCC-15; [1]): 0.9%
cytotoxicity at 4.5 µM (SCC-25; [1]): 0.6%
cytotoxicity at 4.5 µM (SCC-4; [1]): 0.7%
cytotoxicity at 4.5 µM (SCC-9; [1]): 2.3%
cytotoxicity at 4.5 µM (SW579; Debio-1143 4.5 μM alone): 7.7%
cytotoxicity at 4.5 µM (T.Tn; Debio-1143 4.5 μM alone): 4.4%
cytotoxicity at 4.5 µM (TE-1; [1]): -6%
cytotoxicity at 2 µM (NCI-H460): 3.43%
cytotoxicity at 2 µM (HCC2935): 4.95%
cytotoxicity at 2 µM (NCI-H23): 10.8%
cytotoxicity at 2 µM (NCI-H2452): 2.82%
cytotoxicity at 2 µM (A549): 9.61%
cytotoxicity at 2 µM (NCI-N87): 7.01%
cytotoxicity at 2 µM (SNU-5): 31.5%
cytotoxicity at 2 µM (SNU-1): 6.83%
cytotoxicity at 2 µM (AsPC-1): 2.71%
cytotoxicity at 2 µM (Panc-1): 13.6%
cytotoxicity at 2 µM (MIA-PaCa-2): 7.37%
cytotoxicity at 2 µM (SW1990): 2.23%

CN[C@@H](C)C(=O)N[C@H](C(=O)N1CCC[C@H]1c1nc(C(=O)c2ccc(F)cc2)cs1)C1CCCCC1 [LCL-161]
cytotoxicity at 5 µM (LS174T): 9%
cytotoxicity at 5 µM (SW620; SW620, LCL-161 5 uM alone, read-out: % cytotoxicity): 4.7%
cytotoxicity at 5 µM (HT-29; [2]): 6.2%
cytotoxicity at 5 µM (LS411N; LS411N, LCL-161 5 uM alone, read-out: % cytotoxicity): 10.5%
cytotoxicity at 5 µM (SNU-C2B; [2]): 72.9%

B1: INBRX-109: DR5-binding polypeptide consisting of SEQ ID NO: 7, or SEQ ID NO: 7 lacking the terminal lysine; tetravalent DR5 agonist (protein)
chain: EVQLLESGGGEVQPGGSLRLSCAASGLTFPNYGMGWFRQAPGKEREFVSAIYWSGGTVYYAESVKGRFTISRDNAKNTLYLQMSSLRAEDTAVYYCAVTIRGAATQTWKYDYWGQGTLVTVKPGGSGGSEVQLLESGGGEVQPGGSLRLSCAASGLTFPNYGMGWFRQAPGKEREFVSAIYWSGGTVYYAESVKGRFTISRDNAKNTLYLQMSSLRAEDTAVYYCAVTIRGAATQTWKYDYWGQGTLVTVKPGGGGDKTHTCPPCPAPGGPSVFLFPPKPKDTLMISRTPEVTCVVVDVSHEDPEVKFNWYVDGVEVHNAKTKPREEQYNSTYRVVSVLTVLHQDWLNGKEYKCKVSNKALPAPIEKTISKAKGQPREPQVYTLPPSRDELTKNQVSLTCLVKGFYPSDIAVEWESNGQPENNYKTTPPVLDSDGSFFLYSKLTVDKSRWQQGNVFSCSVMHEALHNHYTQKSLSLSPGK
modifications: Synthetic: INBRX-109
notes: tetravalent DR5 agonist
% cytotoxicity (A253; INBRX-109 1 nM alone): 50.9%
% cytotoxicity (CAL-27; INBRX-109 1 nM alone): 13.7%
% cytotoxicity (COLO-680N; INBRX-109 1 nM alone): 9.6%
% cytotoxicity (Detroit 562; INBRX-109 1 nM alone): 42.9%
% cytotoxicity (FADU; INBRX-109 1 nM alone): 6.1%
% cytotoxicity (KYSE-150; INBRX-109 1 nM alone): −0.3%
% cytotoxicity (KYSE-270; INBRX-109 1 nM alone): 7.3%
% cytotoxicity (KYSE-410; INBRX-109 1 nM alone): 2.6%
% cytotoxicity (KYSE-70; INBRX-109 1 nM alone): 22.3%
% cytotoxicity (OSC-19; INBRX-109 1 nM alone): 100.9%
% cytotoxicity (RPMI-2650; INBRX-109 1 nM alone): 2.9%
% cytotoxicity (SCC-15; INBRX-109 1 nM alone): 7.3%
% cytotoxicity (SCC-25; INBRX-109 1 nM alone): 7.9%
% cytotoxicity (SCC-4; INBRX-109 1 nM alone): 8.5%
% cytotoxicity (SCC-9; INBRX-109 1 nM alone): 19.4%
% cytotoxicity (SW579; INBRX-109 1 nM alone): 101.7%
% cytotoxicity (T.Tn; INBRX-109 1 nM alone): 42.9%
% cytotoxicity (TE-1; INBRX-109 1 nM alone): 38.4%
